US4201725A, “Secondary amines” (priority 1974, dated 1980)

What was measured:
in vivo = settings: mouse, po
[1] = tested on: neuroleptic-induced catatonia; assay: Inhibition of neuroleptic (prochlorperazine)-induced catatonia (preventive); assay type: in vivo, rat (male, OFA strain); settings: for activity relative to amantadine, neuroleptic-induced catatonia: times more active than amantadine
Description: The blocking of dopaminergic receptors by neuroleptics in the extra-pyramidal system induces catatonia in the rat. Catatonia is differentiated from sedative properties by means of the test used hereabove for reserpine-induced catatonia. The same system of scoring was also employed in the present case.
An oral dose of the compound to be studied in aqueous solution was administered to batches of 10 male rats of the OFA strain weighing about 150 to 200 g.
Three hours after the injection of this latter compound, catatonia was measured. An identical trial was also carried out with control animals which received prochlorperazine but none of the compounds under study.
The scoring system used was that given hereabove for Table I.

[2] = tested on: reserpine-induced catatonia; assay: Inhibition of reserpine-induced catatonia (preventive, oral compound 30 min before reserpine); assay type: in vivo, rat (male, OFA strain)
Description: After sufficient doses of reserpine have been administered to the rat, a series of symptoms occur, more particularly ptosis, catatonia and a drop in central temperature. These symptoms are caused by the depletion of the intragranular reserve pool of biogenetic amines at the synaptic terminals.
An oral dose of the compound to be studied in aqueous solution was administered to batches of 10 male rats of the OFA strain weighing about 150 to 200 g. Thirty minutes later a dose of 5 mg/kg of reserpine was given by intraperitoneal route. Three hours after the injection of reserpine, the animals were suspended by the four paws to a horizontally stretched wire fixed at 15 cm from the ground. The catatonia animals were those which maintained the position so given for at least 30 seconds. […] The maximum score was therefore 10 per batch. An identical trial was undertaken with control animals which received reserpine but none of the compounds being studied.

Tremor-inducing action = settings: 0.031 m mol/kg oral, 30 min, hydrochloride form

## CCCC(N)(CC)CCC [Compound 2, 1-Ethyl-1-n-propyl-n-butylamine]
In vivo
  selectivity ratio: 30
[1]; 5 mg/kg oral
  Inhibition of the neuroleptic-induced catatonia: 1 (represents 20 to 30% inhibition of catatonia in comparison with the controls)

## CCCC(N)(CC)CC(C)C (stereo not shown) [Compound 3, 1-Ethyl-1-isobutyl-n-butylamine]
[1]; 20 mg/kg oral
  Inhibition of the neuroleptic-induced catatonia: 3 (represents 70 to 80% inhibition of catatonia in comparison with the controls)

## CCCC(N)(CCC)CC(C)C [Compound 5, 1-n-Propyl-1-isobutyl-n-butylamine]
[2]; 20 mg/kg oral
  Inhibition of reserpine-induced catatonia: 2 (represents 50% inhibition of catatonia in comparison with the controls)
[1]
  activity relative to amantadine, neuroleptic-induced catatonia: five times more active

## CCCC(C)(N)CC(C)CC (stereo not shown) [Compound 6, 1,3-Dimethyl-1-n-propyl-n-pentylamine]
In vivo
  selectivity ratio: > 25

## CCCCC(C)(N)CC(C)C (stereo not shown) [Compound 8, 1-Methyl-1-isobutyl-n-pentylamine]
[1]
  activity relative to amantadine, neuroleptic-induced catatonia: twice as active

## CCCCCC(C)(N)CCC (stereo not shown) [Compound 9, 1-Methyl-1-n-propyl-n-hexylamine]
In vivo
  selectivity ratio: 87

## CCCCC(C)CC(C)(C)N (stereo not shown) [Compound 13, 1,1,3-Trimethyl-n-heptylamine]
[2]; 25 mg/kg oral
  Inhibition of reserpine-induced catatonia: 1 (represents 20 to 30% inhibition of catatonia in comparison with the controls)
[1]; 50 mg/kg oral
  Inhibition of the neuroleptic-induced catatonia: 1 (represents 20 to 30% inhibition of catatonia in comparison with the controls)

## CCCC(N)(CCC)CC(C)C [Compound 19, 1-n-Propyl-1-isobutyl-n-butylamine]
[2]; 6 mg/kg oral
  Inhibition of reserpine-induced catatonia: 3 (represents 70 to 80% inhibition of catatonia in comparison with the controls)
[1]; 6 mg/kg oral
  Inhibition of the neuroleptic-induced catatonia: 3 (represents 70 to 80% inhibition of catatonia in comparison with the controls)

## CCCC(CCC)(CCC)N(C)C [Compound 28, N,N-Dimethyl-1,1-di-n-propyl-n-butylamine]
[2]; 6 mg/kg oral
  Inhibition of reserpine-induced catatonia: 4 (represents 100% inhibition of catatonia in comparison with the controls)
[1]; 3 mg/kg oral
  Inhibition of the neuroleptic-induced catatonia: 2 (represents 50% inhibition of catatonia in comparison with the controls)
[1]; 6 mg/kg oral
  Inhibition of the neuroleptic-induced catatonia: 4 (represents 100% inhibition of catatonia in comparison with the controls)

## CCCC(CCC)(CCC)N1CCC1 [Compound 29, N,N-Trimethylene-1,1-di-n-propyl-n-butylamine]
In vivo
  selectivity ratio: 10.8
[2]; 3 mg/kg oral
  Inhibition of reserpine-induced catatonia: 3 (represents 70 to 80% inhibition of catatonia in comparison with the controls)
[2]; 6 mg/kg oral
  Inhibition of reserpine-induced catatonia: 4 (represents 100% inhibition of catatonia in comparison with the controls)
[1]; 3 mg/kg oral
  Inhibition of the neuroleptic-induced catatonia: 2 (represents 50% inhibition of catatonia in comparison with the controls)
[1]; 6 mg/kg oral
  Inhibition of the neuroleptic-induced catatonia: 4 (represents 100% inhibition of catatonia in comparison with the controls)

## CCCC(CCC)(CC(C)C)NC [Compound 31, N-Methyl-1-n-propyl-1-isobutyl-n-butylamine]
[2]; 6.5 mg/kg oral
  Inhibition of reserpine-induced catatonia: 3 (represents 70 to 80% inhibition of catatonia in comparison with the controls)
[1]; 6.5 mg/kg oral
  Inhibition of the neuroleptic-induced catatonia: 4 (represents 100% inhibition of catatonia in comparison with the controls)

## C=CCC(CCC)(CCC)NC [Compound 32, N-Methyl-1-n-propyl-1-allyl-n-butylamine]
Tremor-inducing action; batches of 10 rats
  number of animals presenting tremors (denominator of ratio): 0
Tremor-inducing action
  ratio of index of reserpine-induced catatonia inhibition to number of animals presenting tremors: 3/0
[2]; 5 mg/kg oral
  Inhibition of reserpine-induced catatonia: 2 (represents 50% inhibition of catatonia in comparison with the controls)
[2]; 0.031 m mol/kg oral, hydrochloride form
  index of reserpine-induced catatonia (numerator of ratio): 3 (represents 70 to 80% inhibition of catatonia in comparison with the controls)
[1]; 5 mg/kg oral
  Inhibition of the neuroleptic-induced catatonia: 2 (represents 50% inhibition of catatonia in comparison with the controls)

## CCCC(CCC)(CCC)NCC [Compound 33, N-Ethyl-1,1-di-n-propyl-n-butylamine]
In vivo
  selectivity ratio: 16.5
[2]; 6 mg/kg oral
  Inhibition of reserpine-induced catatonia: 2 (represents 50% inhibition of catatonia in comparison with the controls)
[1]; 6 mg/kg oral
  Inhibition of the neuroleptic-induced catatonia: 4 (represents 100% inhibition of catatonia in comparison with the controls)

## CCCC(CCC)(CCC)NC(C)C [Compound 34, N-Isopropyl-1,1-di-n-propyl-n-butylamine]
In vivo
  selectivity ratio: 21.6
[2]; 6.5 mg/kg oral
  Inhibition of reserpine-induced catatonia: 2 (represents 50% inhibition of catatonia in comparison with the controls)
[2]; 13 mg/kg oral
  Inhibition of reserpine-induced catatonia: 4 (represents 100% inhibition of catatonia in comparison with the controls)
[1]; 3 mg/kg oral
  Inhibition of the neuroleptic-induced catatonia: 2 (represents 50% inhibition of catatonia in comparison with the controls)
[1]; 6.5 mg/kg oral
  Inhibition of the neuroleptic-induced catatonia: 4 (represents 100% inhibition of catatonia in comparison with the controls)

## C=CCNC(CCC)(CCC)CCC [Compound 35, N-Allyl-1,1-di-n-propyl-n-butylamine]
In vivo
  selectivity ratio: 21
[2]; 6 mg/kg oral
  Inhibition of reserpine-induced catatonia: 2 (represents 50% inhibition of catatonia in comparison with the controls)
[1]; 6 mg/kg oral
  Inhibition of the neuroleptic-induced catatonia: 4 (represents 100% inhibition of catatonia in comparison with the controls)

## CCCC(CCC)(CC(C)C)N(C)C [Compound 37, N,N-Dimethyl-1-n-propyl-1-isobutyl-n-butylamine]
[2]; 6.5 mg/kg oral
  Inhibition of reserpine-induced catatonia: 3 (represents 70 to 80% inhibition of catatonia in comparison with the controls)
[1]; 6.5 mg/kg oral
  Inhibition of the neuroleptic-induced catatonia: 2 (represents 50% inhibition of catatonia in comparison with the controls)

## CCCC(CCC)(CCC)N(C)CC [Compound 38, N-Methyl-N-ethyl-1,1-di-n-propyl-n-butylamine]
[2]; 6.5 mg/kg oral
  Inhibition of reserpine-induced catatonia: 2 (represents 50% inhibition of catatonia in comparison with the controls)
[1]; 6.5 mg/kg oral
  Inhibition of the neuroleptic-induced catatonia: 2 (represents 50% inhibition of catatonia in comparison with the controls)

## C#CCN(CC#C)C(CCC)(CCC)CCC [Compound 39, N,N-Dipropargyl-1,1-di-n-propyl-n-butylamine]
[2]; 15 mg/kg oral
  Inhibition of reserpine-induced catatonia: 2 (represents 50% inhibition of catatonia in comparison with the controls)

## CCCC(CCC)(CCC)N1CC1 [Compound 40, N,N-Ethylene-1,1-di-n-propyl-n-butylamine]
In vivo
  selectivity ratio: > 25
[2]; 6 mg/kg oral
  Inhibition of reserpine-induced catatonia: 2 (represents 50% inhibition of catatonia in comparison with the controls)
[1]; 6 mg/kg oral
  Inhibition of the neuroleptic-induced catatonia: 1 (represents 20 to 30% inhibition of catatonia in comparison with the controls)
[1]; 12 mg/kg oral
  Inhibition of the neuroleptic-induced catatonia: 3 (represents 70 to 80% inhibition of catatonia in comparison with the controls)

## C=NC(CCC)(CCC)CCC [Compound 41, N-Methylene-1,1-di-n-propyl-n-butylamine]
In vivo
  selectivity ratio: 27
[2]; 5.5 mg/kg oral
  Inhibition of reserpine-induced catatonia: 4 (represents 100% inhibition of catatonia in comparison with the controls)
[1]; 5.5 mg/kg oral
  Inhibition of the neuroleptic-induced catatonia: 3 (represents 70 to 80% inhibition of catatonia in comparison with the controls)

## CC=NC(CCC)(CCC)CCC [Compound 42, N-Ethylidene-1,1-di-n-propyl-n-butylamine]
In vivo
  selectivity ratio: 20
[2]; 6 mg/kg oral
  Inhibition of reserpine-induced catatonia: 4 (represents 100% inhibition of catatonia in comparison with the controls)
[1]; 6 mg/kg oral
  Inhibition of the neuroleptic-induced catatonia: 2 (represents 50% inhibition of catatonia in comparison with the controls)

## CCCC(CCC)(CCC)NCCO [Compound 43, N-(2-Hydroxyethyl)-1,1-di-n-propyl-n-butylamine]
In vivo
  selectivity ratio: 23
[2]; 13 mg/kg oral
  Inhibition of reserpine-induced catatonia: 3 (represents 70 to 80% inhibition of catatonia in comparison with the controls)
[1]; 6.5 mg/kg oral
  Inhibition of the neuroleptic-induced catatonia: 1 (represents 20 to 30% inhibition of catatonia in comparison with the controls)

## CCCC(CCC)(CCC)N(CCO)CCO [Compound 44, N,N-bis-(2-Hydroxyethyl)-1,1-di-n-propyl-n-butylamine]
[2]; 15 mg/kg oral
  Inhibition of reserpine-induced catatonia: 1 (represents 20 to 30% inhibition of catatonia in comparison with the controls)
[1]; 15 mg/kg oral
  Inhibition of the neuroleptic-induced catatonia: 1 (represents 20 to 30% inhibition of catatonia in comparison with the controls)

## CCCC(CCC)(CCC)NCCCO [Compound 45, N-(3-Hydroxy-n-propyl)-1,1-di-n-propyl-n-butylamine]
[2]; 14 mg/kg oral
  Inhibition of reserpine-induced catatonia: 2 (represents 50% inhibition of catatonia in comparison with the controls)
[1]; 7 mg/kg oral
  Inhibition of the neuroleptic-induced catatonia: 2 (represents 50% inhibition of catatonia in comparison with the controls)

## CCCC(CCC)(CCC)N1CCOCC1 [Compound 46, N,N-(3-Oxapentamethylene)-1,1-di-n-propyl-n-butylamine]
In vivo
  selectivity ratio: 31
[2]; 8 mg/kg oral
  Inhibition of reserpine-induced catatonia: 1 (represents 20 to 30% inhibition of catatonia in comparison with the controls)
[1]; 8 mg/kg oral
  Inhibition of the neuroleptic-induced catatonia: 2 (represents 50% inhibition of catatonia in comparison with the controls)

## CCCNC(CCC)(CCC)CCC [Compound 47, N-n-propyl-1,1-di-n-propyl-n-butylamine]
[1]; 6.5 mg/kg oral
  Inhibition of the neuroleptic-induced catatonia: 2 (represents 50% inhibition of catatonia in comparison with the controls)
